Our source for the plaque formation, Plaque dia. and Plaque qty. values is publication PMC6972948 (Scientific Reports, 2020).

The subject of the assay is A/duck/Ukraine/1/1963. The assay is classed as cell-based, avian influenza A virus.

As for `CCC(CC)O[C@@H]1C=C(C(=O)O)C[C@H](N)[C@H]1NC(C)=O` [Oseltamivir carboxylate, oseltamivir carboxylate], the plaque formation entry was “complete abrogation of plaque formation”. For the setting “Conc. 1 μM”, this compound gave a Plaque dia. of 0 mm and a Plaque qty. of 0.
